Test results as given in patent publication US4542123A (Massachusetts Institute of Technology, priority 1982, dated 1985).
“Also recorded” adds a separate entry of the source.

Test: Plasma amino acid levels after glucose ingestion (Example I, Table 1)
Type: in vivo, human
Experimental: Six healthy, non-obese, fasting subjects each received, on different days 0, 6, 12.5, 25 or 50 g of glucose (Glucola) in a total volume of 100 ml.
Following a protocol approved by the Massachusetts Institute of Technology Committee on the Use of Humans as Experimental Subjects, 6 healthy volunteer outpatients, aged 25-33 years, participated in the study; 3 were males and 3 females. Mean weight was 60 kg for the women and 70 for the men; all subjects were within 10% of their ideal body weight as determined by Metropolitan Life Insurance Company tables. […] Subjects were asked to take meals rich in carbohydrate content (about 300 g/day) for 3 days before beginning the study. On 5 separate days, each subject fasted from 8 p.m. until 9 the next morning and then received a load of 0, 6, 12.5, 25 or 50 g of glucose (caffeine-free glucola) dissolved in water in a total volume of 100 ml; the order of doses was randomized. Venous blood samples were drawn from the antecubital vein through an indwelling catheter at 0, 60 and 120 min for all doses and additionally at 30 and 180 min for the 12.5, 25 and 50 g doses. Blood was collected in heparanized tubes; after centrifugation plasma was stored at -20° C. until analyzed. […] Glucose was analyzed spectrophotometrically after reaction with O-toluidine in hot acidic acid (Sigma Bulletin #635;15). Insulin was measured using a commercial radioimmunoassay kit by a double antibody method (Bio-RIA, Louisville, Ky.). Plasma tryptophan was measured fluorometrically on 20 μl plasma aliquots by the method of Denckla and Dewey, J. Lab. Clin. Med. 69: 160-169, 1967, as modified by Lehman, Scand. J. Clin. Lab. Invest. 28: 49-55, 1971. Branched-chain amino acids and aromatic amino acids were measured in 500 μl aliquots of plasma, deproteinized with sulfosalicylic acid, using a Beckman amino acid analyzer (Beckman Instruments, Palo Alto, Calif., Model 119C).
Data, given as means ±SE errors, were analyzed by two-way analysis of variance; factors compared were dose and time. The Scheffe test was employed to test the statistical significance of differences; p<0.05 was considered significant. Areas under the curves were evaluated by the method of trapezoid approximation. Student tests for paired data were used to evaluate the significance of changes in individual amino acids. Amino acid concentrations after treatments for each subject were also expressed as a percentage of that day's pretreatment levels; mean percent changes were then calculated for each treatment and time interval.
Sum of the LNAA: total concentration of leucine, isoleucine, valine,
the sum of the LNAA, measured 0, 60 and 120 min after 6 nonobese, fasting
subjects ingested 0, 6, 12.5, 25 or 50 g of glucose. All plasma amino
acids, except tryptophan, were measured on a Beckman amino acid analyzer.
Tryptophan was measured by the method of Denckla and Dewey. Data are
expressed as means ± S.E.M.

O=C[C@H](O)[C@@H](O)[C@H](O)[C@H](O)CO [Glucose, glucose]
Absolute leucine concentrations (6-50 g glucose): decreased significantly after 6-50 g | LNAA concentrations, some subjects (6 g of glucose): transiently decreased LNAA concentrations | All other amino acids (absolute concentrations) (12.5-50 g glucose): decreased significantly after 12.5-50 g | Relationship between rise in plasma insulin and fall in LNAA (areas under the curve) (12.5-50 g glucose, subjects 2 and 4, not robust for other subjects): clear inverse linear relationship | Decrease of plasma LNAA vs 0 and 6 g doses (25 and 50 g, 60 and 120 min, P<0.05): significantly greater than those following the 0 and 6 g doses | Decrease of branched-chain amino acids (50 g glucose, 120 min): 35-41% | Decrease of methionine (50 g glucose, 120 min): 31% | Decrease of phenylalanine and tyrosine (50 g glucose, 120 min): 29-31% | Decrease of tryptophan (50 g glucose, 120 min): 23% | Percent reduction in plasma LNAA, 50-g vs 25-g dose (50 g vs 25 g glucose): not consistently associated with a greater percent reduction in plasma LNAA | Absolute concentrations of amino acids, 50-g vs 25-g dose (50 g vs 25 g glucose, 120 min, zero-time LNAA also lower): lower absolute concentrations of the amino acids than the 25-g dose after 120 min | Plasma LNAA concentrations (percent of pre-treatment) (60 and 120 min): dose-related depression of plasma LNAA concentrations | Correlation (r) of glucose dose with mean percent decrease in LNAA (120 min, P<0.01): 0.80 | Decrease of branched-chain amino acids (after 50 g of glucose): 35-41% | Fall of plasma tyrosine concentrations (after 50 g of glucose): 23% | Ratio of plasma tyrosine to other plasma LNAA (after 50 g of glucose): increased significantly | Absolute isoleucine concentrations (after all treatments (0-50 g glucose)): decreased significantly with time after all treatments | Tyrosine/LNAA ratio (any glucose dose): did not change significantly | Plasma Iso level (glucose 6 g, 0 min): 60 ± 7 nmol/mL | Plasma LNAA (sum) (glucose 6 g, 0 min): 522 ± 47 nmol/mL | Plasma Leu level (glucose 6 g, 0 min): 113 ± 11 nmol/mL | Plasma Met level (glucose 6 g, 0 min): 24 ± 4 nmol/mL | Plasma Phe level (glucose 6 g, 0 min): 50 ± 3 nmol/mL | Plasma Trp level (glucose 6 g, 0 min): 46 ± 4 nmol/mL | Plasma Tyr level (glucose 6 g, 0 min): 57 ± 8 nmol/mL | Plasma Val level (glucose 6 g, 0 min): 220 ± 19 nmol/mL | Trp/LNAA (glucose 6 g, 0 min): .088 | Plasma Iso level (glucose 6 g, 60 min): 51 ± 4 nmol/mL | Plasma Leu level (glucose 6 g, 60 min): 100 ± 12 nmol/mL | Plasma Met level (glucose 6 g, 60 min): 21 ± 3 nmol/mL | Plasma Phe level (glucose 6 g, 60 min): 46 ± 2 nmol/mL | Plasma Trp level (glucose 6 g, 60 min): 43 ± 4 nmol/mL | Plasma Tyr level (glucose 6 g, 60 min): 51 ± 7 nmol/mL | Plasma Val level (glucose 6 g, 60 min): 201 ± 15 nmol/mL | Trp/LNAA (glucose 6 g, 60 min): .092 | Plasma Iso level (glucose 6 g, 120 min): 51 ± 5 nmol/mL | Plasma LNAA (sum) (glucose 6 g, 120 min): 471 ± 37 nmol/mL | Plasma Leu level (glucose 6 g, 120 min): 101 ± 9 nmol/mL | Plasma Met level (glucose 6 g, 120 min): 22 ± 3 nmol/mL | Plasma Phe level (glucose 6 g, 120 min): 47 ± 3 nmol/mL | Plasma Trp level (glucose 6 g, 120 min): 41 ± 4 nmol/mL | Plasma Tyr level (glucose 6 g, 120 min): 50 ± 6 nmol/mL | Plasma Val level (glucose 6 g, 120 min): 200 ± 16 nmol/mL | Trp/LNAA (glucose 6 g, 120 min): .086 | Plasma Iso level (glucose 12.5 g, 0 min): 65 ± 5 nmol/mL | Plasma LNAA (sum) (glucose 12.5 g, 0 min): 574 ± 15 nmol/mL | Plasma Leu level (glucose 12.5 g, 0 min): 117 ± 10 nmol/mL | Plasma Met level (glucose 12.5 g, 0 min): 27 ± 2 nmol/mL | Plasma Phe level (glucose 12.5 g, 0 min): 54 ± 4 nmol/mL | Plasma Trp level (glucose 12.5 g, 0 min): 45 ± 2 nmol/mL | Plasma Tyr level (glucose 12.5 g, 0 min): 58 ± 4 nmol/mL | Plasma Val level (glucose 12.5 g, 0 min): 255 ± 47 nmol/mL | Trp/LNAA (glucose 12.5 g, 0 min): .079 | Plasma Iso level (glucose 12.5 g, 60 min): 53 ± 4 nmol/mL | Plasma LNAA (sum) (glucose 12.5 g, 60 min): 501 ± 66 nmol/mL | Plasma Leu level (glucose 12.5 g, 60 min): 96 ± 10 nmol/mL | Plasma Met level (glucose 12.5 g, 60 min): 25 ± 1 nmol/mL | Plasma Phe level (glucose 12.5 g, 60 min): 50 ± 3 nmol/mL | Plasma Trp level (glucose 12.5 g, 60 min): 40 ± 1 nmol/mL | Plasma Tyr level (glucose 12.5 g, 60 min): 52 ± 3 nmol/mL | Plasma Val level (glucose 12.5 g, 60 min): 226 ± 48 nmol/mL | Trp/LNAA (glucose 12.5 g, 60 min): .080 | Plasma Iso level (glucose 12.5 g, 120 min): 48 ± 3 nmol/mL | Plasma LNAA (sum) (glucose 12.5 g, 120 min): 582 ± 49 nmol/mL | Plasma Leu level (glucose 12.5 g, 120 min): 95 ± 9 nmol/mL | Plasma Met level (glucose 12.5 g, 120 min): 23 ± 1 nmol/mL | Plasma Phe level (glucose 12.5 g, 120 min): 46 ± 2 nmol/mL | Plasma Trp level (glucose 12.5 g, 120 min): 41 ± 1 nmol/mL | Plasma Tyr level (glucose 12.5 g, 120 min): 50 ± 3 nmol/mL | Plasma Val level (glucose 12.5 g, 120 min): 221 ± 98 nmol/mL | Trp/LNAA (glucose 12.5 g, 120 min): .084 | Plasma Iso level (glucose 25 g, 0 min): 71 ± 6 nmol/mL | Plasma LNAA (sum) (glucose 25 g, 0 min): 639 ± 79 nmol/mL | Plasma Leu level (glucose 25 g, 0 min): 130 ± 13 nmol/mL | Plasma Met level (glucose 25 g, 0 min): 26 ± 3 nmol/mL | Plasma Phe level (glucose 25 g, 0 min): 56 ± 3 nmol/mL | Plasma Trp level (glucose 25 g, 0 min): 47 ± 2 nmol/mL | Plasma Tyr level (glucose 25 g, 0 min): 63 ± 3 nmol/mL | Plasma Val level (glucose 25 g, 0 min): 294 ± 50 nmol/mL | Trp/LNAA (glucose 25 g, 0 min): .073 | Plasma Iso level (glucose 25 g, 60 min): 48 ± 4 nmol/mL | Plasma LNAA (sum) (glucose 25 g, 60 min): 466 ± 45 nmol/mL | Plasma Leu level (glucose 25 g, 60 min): 84 ± 10 nmol/mL | Plasma Met level (glucose 25 g, 60 min): 21 ± 2 nmol/mL | Plasma Phe level (glucose 25 g, 60 min): 47 ± 4 nmol/mL | Plasma Trp level (glucose 25 g, 60 min): 42 ± 2 nmol/mL | Plasma Tyr level (glucose 25 g, 60 min): 49 ± 2 nmol/mL | Plasma Val level (glucose 25 g, 60 min): 218 ± 29 nmol/mL | Trp/LNAA (glucose 25 g, 60 min): .091 | Plasma Iso level (glucose 25 g, 120 min): 46 ± 4 nmol/mL | Plasma LNAA (sum) (glucose 25 g, 120 min): 454 ± 40 nmol/mL | Plasma Leu level (glucose 25 g, 120 min): 91 ± 8 nmol/mL | Plasma Met level (glucose 25 g, 120 min): 19 ± 2 nmol/mL | Plasma Phe level (glucose 25 g, 120 min): 41 ± 2 nmol/mL | Plasma Trp level (glucose 25 g, 120 min): 41 ± 3 nmol/mL | Plasma Tyr level (glucose 25 g, 120 min): 46 ± 2 nmol/mL | Plasma Val level (glucose 25 g, 120 min): 212 ± 26 nmol/mL | Trp/LNAA (glucose 25 g, 120 min): .089 | Plasma Iso level (glucose 50 g, 0 min): 61 ± 4 nmol/mL | Plasma LNAA (sum) (glucose 50 g, 0 min): 573 ± 60 nmol/mL | Plasma Leu level (glucose 50 g, 0 min): 114 ± 11 nmol/mL | Plasma Met level (glucose 50 g, 0 min): 26 ± 2 nmol/mL | Plasma Phe level (glucose 50 g, 0 min): 50 ± 2 nmol/mL | Plasma Trp level (glucose 50 g, 0 min): 46 ± 2 nmol/mL | Plasma Tyr level (glucose 50 g, 0 min): 59 ± 4 nmol/mL | Plasma Val level (glucose 50 g, 0 min): 262 ± 40 nmol/mL | Trp/LNAA (glucose 50 g, 0 min): .080 | Plasma Iso level (glucose 50 g, 60 min): 48 ± 2 nmol/mL | Plasma LNAA (sum) (glucose 50 g, 60 min): 469 ± 52 nmol/mL | Plasma Leu level (glucose 50 g, 60 min): 93 ± 11 nmol/mL | Plasma Met level (glucose 50 g, 60 min): 21 ± 2 nmol/mL | Plasma Phe level (glucose 50 g, 60 min): 50 ± 4 nmol/mL | Plasma Trp level (glucose 50 g, 60 min): 40 ± 1 nmol/mL | Plasma Tyr level (glucose 50 g, 60 min): 43 ± 3 nmol/mL | Plasma Val level (glucose 50 g, 60 min): 215 ± 32 nmol/mL | Trp/LNAA (glucose 50 g, 60 min): .085 | Plasma Iso level (glucose 50 g, 120 min): 36 ± 4 nmol/mL | Plasma LNAA (sum) (glucose 50 g, 120 min): 372 ± 50 nmol/mL | Plasma Leu level (glucose 50 g, 120 min): 72 ± 10 nmol/mL | Plasma Met level (glucose 50 g, 120 min): 18 ± 2 nmol/mL | Plasma Phe level (glucose 50 g, 120 min): 37 ± 2 nmol/mL | Plasma Trp level (glucose 50 g, 120 min): 35 ± 2 nmol/mL | Plasma Tyr level (glucose 50 g, 120 min): 40 ± 4 nmol/mL | Plasma Val level (glucose 50 g, 120 min): 170 ± 30 nmol/mL | Trp/LNAA (glucose 50 g, 120 min): .094 | Mean percent reductions of LNAA, dose-dependence (healthy fasting subjects, most clearly observed after 120 min): tended to exhibit dose-dependence; also recorded: dose-related decreases in plasma LNAA concentrations | Glucose doses needed to increase the plasma TRP/LNAA ratio (healthy young fasting subjects): 25 to 50 g | Mean absolute LNAA concentrations, dose-related decrease (high intra- and inter-individual variations in basal LNAA): no significant dose-related decreases in mean absolute LNAA concentrations | Tryptophan/LNAA ratio (smaller reduction in plasma tryptophan): became elevated | Glucose dose sufficient to decrease LNAA (some subjects): 6 g | Glucose dose probably required to reduce plasma LNAA (subject 2): ~12.5 g | Glucose dose that may have been needed to reduce plasma LNAA (subject 4): ~25 g | Glucose dose that may have been sufficient to reduce plasma LNAA (subjects 1, 3, 5 and 6, one or more of the times tested): ~6 g
